Experimental data: ChEMBL document CHEMBL1147864, “Synthesis of new sugar derivatives from Stachys sieboldi Miq and antibacterial evaluation against Mycobacterium tuberculosis, Mycobacterium avium, and Staphylococcus aureus” (2007)
Converted amounts (≈) assume the structure as drawn.

Legend:
Format in all cases: functional
Conditions in all cases: 336 h
[1] = test system: Mycobacterium tuberculosis; assay: Antimycobacterial activity against isoniazide-rifampicin-streptomycin-ethambutol-resistant Mycobacterium tuberculosis V-1-16 after 2 weeks by broth dilution method
[2] = test system: Mycobacterium tuberculosis; assay: Antimycobacterial activity against isoniazide-rifampicin-streptomycin-ethambutol-resistant Mycobacterium tuberculosis Q-4-1 after 2 weeks by broth dilution method
[3] = test system: Mycobacterium tuberculosis; assay: Antimycobacterial activity against isoniazide resistant Mycobacterium tuberculosis A-2-1 after 2 weeks by broth dilution method
[4] = test system: Mycobacterium tuberculosis; assay: Antimycobacterial activity against isoniazide resistant Mycobacterium tuberculosis K-3-6 after 2 weeks by broth dilution method
[5] = test system: Mycobacterium tuberculosis; assay: Antimycobacterial activity against isoniazide-rifampicin-streptomycin-ethambutol-resistant Mycobacterium tuberculosis P-4-11after 2 weeks by broth dilution method
[6] = test system: Mycobacterium tuberculosis; assay: Antimycobacterial activity against isoniazide-rifampicin-streptomycin-ethambutol-resistant Mycobacterium tuberculosis N-5-2 after 2 weeks by broth dilution method
[7] = test system: Mycobacterium tuberculosis; assay: Antimycobacterial activity against isoniazide-rifampicin-streptomycin-ethambutol-resistant Mycobacterium tuberculosis Z-1-4 after 2 weeks by broth dilution method
[8] = test system: Mycobacterium tuberculosis; assay: Antimycobacterial activity against isoniazide-rifampicin-ethambutol-resistant Mycobacterium tuberculosis A-4-30 after 2 weeks by broth dilution method
[9] = test system: Mycobacterium tuberculosis; assay: Antimycobacterial activity against isoniazide-rifampicin-streptomycin-ethambutol-resistant Mycobacterium tuberculosis A-2-6 after 2 weeks by broth dilution method
[10] = test system: Mycobacterium tuberculosis; assay: Antimycobacterial activity against rifampicin resistant Mycobacterium tuberculosis A-2-4 after 2 weeks by broth dilution method
[11] = test system: Mycobacterium tuberculosis; assay: Antimycobacterial activity against streptomycin resistant Mycobacterium tuberculosis A-4-8 after 2 weeks by broth dilution method
[12] = test system: Mycobacterium tuberculosis; assay: Antimycobacterial activity against isoniazide-streptomycin resistant Mycobacterium tuberculosis A-4-25 after 2 weeks by broth dilution method
[13] = test system: Mycobacterium tuberculosis; assay: Antimycobacterial activity against isoniazide-rifampicin-streptomycin-ethambutol-resistant Mycobacterium tuberculosis P-1-50 after 2 weeks by broth dilution method
[14] = test system: Mycobacterium tuberculosis; assay: Antimycobacterial activity against isoniazide-rifampicin-streptomycin-ethambutol-resistant Mycobacterium tuberculosis U-4-6 after 2 weeks by broth dilution method
[15] = test system: Mycobacterium tuberculosis; assay: Antimycobacterial activity against isoniazide-rifampicin-ethambutol-resistant Mycobacterium tuberculosis J-1-19 after 2 weeks by broth dilution method
[16] = test system: Mycobacterium tuberculosis; assay: Antimycobacterial activity against isoniazide-rifampicin-streptomycin-ethambutol-resistant Mycobacterium tuberculosis E-1-40 after 2 weeks by broth dilution method
[17] = test system: Mycobacterium tuberculosis; assay: Antimycobacterial activity against isoniazide-rifampicin-streptomycin-ethambutol-resistant Mycobacterium tuberculosis R-1-38 after 2 weeks by broth dilution method
[18] = test system: Mycobacterium tuberculosis; assay: Antimycobacterial activity against isoniazide-rifampicin-streptomycin-ethambutol-resistant Mycobacterium tuberculosis S-1-14 after 2 weeks by broth dilution method
[19] = test system: Mycobacterium tuberculosis; assay: Antimycobacterial activity against isoniazide-rifampicin-streptomycin-ethambutol-resistant Mycobacterium tuberculosis C-1-29 after 2 weeks by broth dilution method
[20] = test system: Mycobacterium tuberculosis; assay: Antimycobacterial activity against isoniazide-rifampicin resistant Mycobacterium tuberculosis A-2-3 after 2 weeks by broth dilution method
[21] = test system: Mycobacterium tuberculosis; assay: Antimycobacterial activity against isoniazide-rifampicin-streptomycin-ethambutol-resistant Mycobacterium tuberculosis M-1-32 after 2 weeks by broth dilution method
[22] = test system: Mycobacterium tuberculosis; assay: Antimycobacterial activity against isoniazide-rifampicin-ethambutol-resistant Mycobacterium tuberculosis N-4-11 after 2 weeks by broth dilution method
[23] = test system: Mycobacterium tuberculosis; assay: Antimycobacterial activity against streptomycin resistant Mycobacterium tuberculosis A-3-47 after 2 weeks by broth dilution method
[24] = test system: Mycobacterium tuberculosis; assay: Antimycobacterial activity against isoniazide-rifampicin-streptomycin-ethambutol-resistant Mycobacterium tuberculosis Z-1-2 after 2 weeks by broth dilution method
[25] = test system: Mycobacterium tuberculosis; assay: Antimycobacterial activity against isoniazide-rifampicin-streptomycin-ethambutol-resistant Mycobacterium tuberculosis U-2-15 after 2 weeks by broth dilution method

Compound: C=CCO[C@@H]1O[C@H](CO[C@H]2O[C@H](CO[C@H]3O[C@H](COC(C)=O)[C@H](OC(C)=O)[C@H](OC(C)=O)[C@H]3OC(C)=O)[C@H](OC(C)=O)[C@H](OC(C)=O)[C@H]2OC(C)=O)[C@@H](OC(C)=O)[C@H](OC(C)=O)[C@H]1OC(C)=O
- MIC [1]: 6.25 µg/mL (≈ 6.48 µM)
- MIC [2]: 6.25 µg/mL (≈ 6.48 µM)
- MIC [3]: 3.13 µg/mL (≈ 3.24 µM)
- MIC [4]: 3.13 µg/mL (≈ 3.24 µM)
- MIC [5]: 3.13 µg/mL (≈ 3.24 µM)
- MIC [6]: 3.13 µg/mL (≈ 3.24 µM)
- MIC [7]: 6.25 µg/mL (≈ 6.48 µM)
- MIC [8]: 6.25 µg/mL (≈ 6.48 µM)
- MIC [9]: 6.25 µg/mL (≈ 6.48 µM)
- MIC [10]: 12.5 µg/mL (≈ 13 µM)
- MIC [11]: 6.25 µg/mL (≈ 6.48 µM)
- MIC [12]: 12.5 µg/mL (≈ 13 µM)
- MIC [13]: 3.13 µg/mL (≈ 3.24 µM)
- MIC [14]: 1.56 µg/mL (≈ 1.62 µM)
- MIC [15]: 3.13 µg/mL (≈ 3.24 µM)
- MIC [16]: 6.25 µg/mL (≈ 6.48 µM)
- MIC [17]: 6.25 µg/mL (≈ 6.48 µM)
- MIC [18]: 6.25 µg/mL (≈ 6.48 µM)
- MIC [19]: 12.5 µg/mL (≈ 13 µM)
- MIC [20]: 3.13 µg/mL (≈ 3.24 µM)
- MIC [21]: 3.13 µg/mL (≈ 3.24 µM)
- MIC [22]: 3.13 µg/mL (≈ 3.24 µM)
- MIC [23]: 3.13 µg/mL (≈ 3.24 µM)
- MIC [24]: 3.13 µg/mL (≈ 3.24 µM)
- MIC [25]: 6.25 µg/mL (≈ 6.48 µM)
